Results reported in patent US20070093520A1, “Method of treatment of diarrhea-predominant irritable bowel syndrome in a subject” (priority 2005, published 2007).

System: diarrhea-predominant IBS subjects
Assay: 3007 Study: open-label 52-week safety study, adverse events and withdrawals
Conditions: C/C group

## Cc1nccn1C[C@H]1CCc2c(c3cccc4c3n2CCC4)C1=O [cilansetron, (R)-(−)-4,5,6,8,9,10-hexahydro-10-[(2-methyl-1H-imidazol-1-yl)methyl]-11H-pyrido-[3,2,1-jk]-carbazol-11-one]
  TEAE: Abdominal Therapeutic Procedures NEC: 0 n (%)
  TEAE: Abdominoplasty: 0 n (%)
  TEAE: Abnormal Chest Sounds NOS: 0 n (%)
  TEAE: Acne NOS: 1 (<1%) n (%)
  TEAE: Acnes: 1 (<1%) n (%)
  TEAE: Acquired Hypothyroidism: 1 (<1%) n (%)
  TEAE: Acrochordons: 0 n (%)
  TEAE: Adenomyosis*: 1 (<1%) n (%)
  TEAE: Age Related Issues: 0 n (%)
  TEAE: Allergic Conditions NEC: 1 (<1%) n (%)
  TEAE: Allergies to Foods, Food Additives, Drugs and Other Chemicals: 1 (<1%) n (%)
  TEAE: Allergy to Insect Sting: 0 n (%)
  TEAE: Alopecia: 0 n (%)
  TEAE: Alopecias: 0 n (%)
  TEAE: Amenorrhoea NOS*: 1 (<1%) n (%)
  TEAE: Anaemia NOS: 0 n (%)
  TEAE: Anaemias NEC: 0 n (%)
  TEAE: Angina Pectoris: 3 (1%) n (%)
  TEAE: Anorexia: 1 (<1%) n (%)
  TEAE: Anxiety: 3 (1%) n (%)
  TEAE: Anxiety Aggravated: 2 (<1%) n (%)
  TEAE: Anxiety Symptoms: 5 (2%) n (%)
  TEAE: Apocrine and Eccrine Gland Disorders: 0 n (%)
  TEAE: Appetite Disorders: 1 (<1%) n (%)
  TEAE: Arrhythmia NOS: 1 (<1%) n (%)
  TEAE: Asthenic Conditions: 8 (3%) n (%)
  TEAE: Asthma Aggravated: 1 (<1%) n (%)
  TEAE: Asthma NOS: 1 (<1%) n (%)
  TEAE: Atopic Disorders: 4 (2%) n (%)
  TEAE: Atrial Fibrillation: 1 (<1%) n (%)
  TEAE: Atrioventricular Block First Degree: 1 (<1%) n (%)
  TEAE: Basal Cell Carcinoma: 2 (<1%) n (%)
  TEAE: Behaviour and Socialisation Disturbances: 0 n (%)
  TEAE: Benign Ovarian Tumour*: 0 n (%)
  TEAE: Biliary Tract Disorder NOS: 0 n (%)
  TEAE: Binocular Eye Movement Disorder NOS: 0 n (%)
  TEAE: Bladder Disorders NEC: 0 n (%)
  TEAE: Bladder Infections and Inflammations: 0 n (%)
  TEAE: Bladder Prolapse: 0 n (%)
  TEAE: Bladder and Urethral Symptoms: 6 (2%) n (%)
  TEAE: Blood and Lymphatic System Disorders: 3 (1%) n (%)
  TEAE: Bone Neoplasm Malignant: 1 (<1%) n (%)
  TEAE: Bone Neoplasms Malignant (Excl Sarcomas): 1 (<1%) n (%)
  TEAE: Bradyarrhythmia: 0 n (%)
  TEAE: Breast Calcifications*: 0 n (%)
  TEAE: Breast Cancer NOS*: 0 n (%)
  TEAE: Breast Disorder NOS*: 0 n (%)
  TEAE: Breast Disorders NEC*: 1 (<1%) n (%)
  TEAE: Breast Mass NOS*: 1 (<1%) n (%)
  TEAE: Breast and Nipple Neoplasms Malignant*: 0 n (%)
  TEAE: Breath Sounds Decreased: 1 (<1%) n (%)
  TEAE: Breathing Abnormalities: 2 (<1%) n (%)
  TEAE: Bronchospasm and Obstruction: 3 (1%) n (%)
  TEAE: Bruising, Ecchymosis and Purpura: 1 (<1%) n (%)
  TEAE: Bundle Branch Block Right: 1 (<1%) n (%)
  TEAE: Calculus Renal NOS: 3 (1%) n (%)
  TEAE: Calculus Ureteric: 1 (<1%) n (%)
  TEAE: Cardiac Conduction Disorders: 2 (<1%) n (%)
  TEAE: Cardiac Disorders: 10 (4%) n (%)
  TEAE: Cardiac Fibrillation NOS: 0 n (%)
  TEAE: Cardiac Flutter: 0 n (%)
  TEAE: Cardiac Signs and Symptoms NEC: 2 (<1%) n (%)
  TEAE: Cataract Unilateral: 1 (<1%) n (%)
  TEAE: Cataracts (Excl Congenital): 1 (<1%) n (%)
  TEAE: Cerumen Impaction: 2 (<1%) n (%)
  TEAE: Chest Discomfort: 0 n (%)
  TEAE: Chest Pain: 3 (1%) n (%)
  TEAE: Chest Tightness: 1 (<1%) n (%)
  TEAE: Cholecystitis and Cholelithiasis: 2 (<1%) n (%)
  TEAE: Cholelithiasis: 2 (<1%) n (%)
  TEAE: Congenital, Familial and Genetic Disorders: 0 n (%)
  TEAE: Conjunctival Infections, Irritations and Inflammations: 2 (<1%) n (%)
  TEAE: Conjunctivitis: 1 (<1%) n (%)
  TEAE: Conjunctivitis Allergic: 1 (<1%) n (%)
  TEAE: Contusion: 1 (<1%) n (%)
  TEAE: Cough: 5 (2%) n (%)
  TEAE: Coughing and Associated Symptoms: 6 (2%) n (%)
  TEAE: Cyst NOS: 1 (<1%) n (%)
  TEAE: Cystitis Interstitial: 0 n (%)
  TEAE: Dacryostenosis Acquired: 1 (<1%) n (%)
  TEAE: Deafness NOS: 1 (<1%) n (%)
  TEAE: Dehydration: 1 (<1%) n (%)
  TEAE: Depression: 4 (2%) n (%)
  TEAE: Depression Aggravated: 3 (1%) n (%)
  TEAE: Depressive Disorders: 7 (3%) n (%)
  TEAE: Dermal and Epidermal Conditions NEC: 1 (<1%) n (%)
  TEAE: Dermatitis Allergic: 0 n (%)
  TEAE: Dermatitis Ascribed to Specific Agent: 0 n (%)
  TEAE: Dermatitis Contact: 1 (<1%) n (%)
  TEAE: Dermatitis Medicamentosa: 0 n (%)
  TEAE: Dermatitis NOS: 0 n (%)
  TEAE: Dermatitis and Eczema: 2 (<1%) n (%)
  TEAE: Dermographism: 0 n (%)
  TEAE: Diabetes Mellitus (Incl Subtypes): 2 (<1%) n (%)
  TEAE: Diabetes Mellitus Aggravated: 1 (<1%) n (%)
  TEAE: Diabetes Mellitus Non-Insulin-Dependent: 1 (<1%) n (%)
  TEAE: Disturbances in Initiating and Maintaining Sleep: 6 (2%) n (%)
  TEAE: Drug Hypersensitivity: 1 (<1%) n (%)
  TEAE: Dry Eye NOS: 2 (<1%) n (%)
  TEAE: Dysfunctional Uterine Bleeding*: 1 (<1%) n (%)
  TEAE: Dyshidrosis: 0 n (%)
  TEAE: Dyspnoea NOS: 2 (<1%) n (%)
  TEAE: Dysuria: 1 (<1%) n (%)
  TEAE: Ear Disorders NEC: 1 (<1%) n (%)
  TEAE: Ear Pain: 1 (<1%) n (%)
  TEAE: Ear and Labyrinth Disorders: 6 (2%) n (%)
  TEAE: Eczema: 1 (<1%) n (%)
  TEAE: Elevated Cholesterol: 3 (1%) n (%)
  TEAE: Endocrine Disorders: 2 (<1%) n (%)
  TEAE: Endometriosis*: 2 (1%) n (%)
  TEAE: Erythema: 1 (<1%) n (%)
  TEAE: Erythemas: 1 (<1%) n (%)
  TEAE: External Ear Disorders NEC: 2 (<1%) n (%)
  TEAE: Eye Disorders: 8 (3%) n (%)
  TEAE: Fall: 2 (<1%) n (%)
  TEAE: Fatigue: 7 (3%) n (%)
  TEAE: Fatigue Aggravated: 1 (<1%) n (%)
  TEAE: Febrile Disorders: 2 (<1%) n (%)
  TEAE: Fibroma NOS: 0 n (%)
  TEAE: Fluid Intake Increased: 0 n (%)
  TEAE: Fluid in Middle Ear: 1 (<1%) n (%)
  TEAE: Flushing: 1 (<1%) n (%)
  TEAE: Food Allergy: 0 n (%)
  TEAE: General Disorders and Administration Site Conditions: 23 (9%) n (%)
  TEAE: General Signs and Symptoms NEC: 6 (2%) n (%)
  TEAE: Gilbert's Syndrome: 0 n (%)
  TEAE: Glucose Tolerance Impaired: 0 n (%)
  TEAE: Glycosuria: 0 n (%)
  TEAE: Goitre: 1 (<1%) n (%)
  TEAE: Gout: 2 (<1%) n (%)
  TEAE: Haematoma NOS: 1 (<1%) n (%)
  TEAE: Haematuria: 4 (2%) n (%)
  TEAE: Hallucination NOS: 0 n (%)
  TEAE: Hallucination, Auditory: 0 n (%)
  TEAE: Hand Fracture: 0 n (%)
  TEAE: Hearing Losses: 1 (<1%) n (%)
  TEAE: Hepatitis NOS: 1 (<1%) n (%)
  TEAE: Hepatobiliary Disorders: 4 (2%) n (%)
  TEAE: Hepatobiliary Signs and Symptoms: 1 (<1%) n (%)
  TEAE: Hepatocellular Damage and Hepatitis NEC: 1 (<1%) n (%)
  TEAE: Hepatosplenomegaly NOS: 1 (<1%) n (%)
  TEAE: Hernia NOS: 0 n (%)
  TEAE: Hernia Repair NOS: 1 (<1%) n (%)
  TEAE: Hernia Repairs: 1 (<1%) n (%)
  TEAE: Hernias NEC: 0 n (%)
  TEAE: Hot Flushes NOS: 1 (<1%) n (%)
  TEAE: Hypercholesterolaemia: 3 (1%) n (%)
  TEAE: Hyperglycaemia NOS: 0 n (%)
  TEAE: Hyperglycaemic Conditions NEC: 0 n (%)
  TEAE: Hyperkeratoses: 0 n (%)
  TEAE: Hyperkeratosis: 0 n (%)
  TEAE: Hyperlipidaemia NOS: 1 (<1%) n (%)
  TEAE: Hyperlipidaemias NEC: 1 (<1%) n (%)
  TEAE: Hypersensitivity NOS: 1 (<1%) n (%)
  TEAE: Hypertension Aggravated: 1 (<1%) n (%)
  TEAE: Hypertension NOS: 7 (3%) n (%)
  TEAE: Hypotension NOS: 0 n (%)
  TEAE: Immune System Disorders: 5 (2%) n (%)
  TEAE: Inborn Errors of Bilirubin Metabolism: 0 n (%)
  TEAE: Influenza Like Illness: 3 (1%) n (%)
  TEAE: Ingrowing Nail: 0 n (%)
  TEAE: Inner Ear Disorders NEC: 1 (<1%) n (%)
  TEAE: Inner Ear Infections and Inflammations: 2 (<1%) n (%)
  TEAE: Inner Ear Signs and Symptoms: 1 (<1%) n (%)
  TEAE: Insomnia: 5 (2%) n (%)
  TEAE: Insomnia Exacerbated: 1 (<1%) n (%)
  TEAE: Intermenstrual Bleeding*: 1 (<1%) n (%)
  TEAE: Irritability: 0 n (%)
  TEAE: Ischaemic Coronary Artery Disorders: 4 (2%) n (%)
